# In US20260262643A1, “HERBICIDAL BENZOXAZINES” (FMC CORPORATION, priority 2022, published 2026):
# How the values were obtained:
# barnyardgrass [1] = assay: Test C preemergence; type: in vivo, Echinochloa crusgalli
# How it was run: (§1)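 Visual injury ratings on a 0–100 scale (100 = complete control) were made against untreated controls 10 days after treatment in the greenhouse. Compounds, formulated with surfactant in non-phytotoxic solvent, were sprayed on soil preemergence or onto one- to two-leaf plants 2–10 cm tall postemergence.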
# blackgrass [2] = assay: Test C preemergence; type: in vivo, Alopecurus myosuroides
# How it was run: as §1
# corn [3] = assay: Test C preemergence; type: in vivo, Zea mays
# How it was run: as §1
# foxtail, giant [4] = assay: Test C preemergence; type: in vivo, Setaria faberi
# How it was run: as §1
# kochia [5] = assay: Test C preemergence; type: in vivo, Bassia scoparia
# How it was run: as §1
# oat, wild [6] = assay: Test C preemergence; type: in vivo, Avena fatua
# How it was run: as §1
# pigweed, palmer [7] = assay: Test C preemergence; type: in vivo, Amaranthus palmeri
# How it was run: as §1
# ragweed [8] = assay: Test C preemergence; type: in vivo, Ambrosia artemisiifolia
# How it was run: as §1
# ryegrass, Italian [9] = assay: Test C preemergence; type: in vivo, Lolium multiflorum
# How it was run: as §1
# soybean [10] = assay: Test C preemergence; type: in vivo, Glycine max
# How it was run: as §1
# wheat [11] = assay: Test C preemergence; type: in vivo, Triticum aestivum
# How it was run: as §1
# barnyardgrass [12] = assay: Test C postemergence; type: in vivo, Echinochloa crusgalli; details: 10 days, 0 to 100 scale (0 no effect, 100 complete control)
# How it was run: as §1
# blackgrass [13] = assay: Test C postemergence; type: in vivo, Alopecurus myosuroides; details: 10 days, 0 to 100 scale (0 no effect, 100 complete control)
# How it was run: as §1
# corn [14] = assay: Test C postemergence; type: in vivo, Zea mays; details: 10 days, 0 to 100 scale (0 no effect, 100 complete control)
# How it was run: as §1
# foxtail, giant [15] = assay: Test C postemergence; type: in vivo, Setaria faberi; details: 10 days, 0 to 100 scale (0 no effect, 100 complete control)
# How it was run: as §1
# kochia [16] = assay: Test C postemergence; type: in vivo, Bassia scoparia; details: 10 days, 0 to 100 scale (0 no effect, 100 complete control)
# How it was run: as §1
# oat, wild [17] = assay: Test C postemergence; type: in vivo, Avena fatua; details: 10 days, 0 to 100 scale (0 no effect, 100 complete control)
# How it was run: as §1
# pigweed, palmer [18] = assay: Test C postemergence; type: in vivo, Amaranthus palmeri; details: 10 days, 0 to 100 scale (0 no effect, 100 complete control)
# How it was run: as §1
# ragweed [19] = assay: Test C postemergence; type: in vivo, Ambrosia artemisiifolia; details: 10 days, 0 to 100 scale (0 no effect, 100 complete control)
# How it was run: as §1
# ryegrass, Italian [20] = assay: Test C postemergence; type: in vivo, Lolium multiflorum; details: 10 days, 0 to 100 scale (0 no effect, 100 complete control)
# How it was run: as §1
# soybean [21] = assay: Test C postemergence; type: in vivo, Glycine max; details: 10 days, 0 to 100 scale (0 no effect, 100 complete control)
# How it was run: as §1
# wheat [22] = assay: Test C postemergence; type: in vivo, Triticum aestivum; details: 10 days, 0 to 100 scale (0 no effect, 100 complete control)
# How it was run: as §1
# galium = assay: Test C postemergence; type: in vivo, Galium aparine; details: 10 days, 0 to 100 scale (0 no effect, 100 complete control)
# How it was run: as §1
# horseweed = assay: Test C postemergence; type: in vivo, Erigeron canadensis; details: 10 days, 0 to 100 scale (0 no effect, 100 complete control)
# How it was run: as §1
# barnyardgrass [23] = assay: Test D flooded paddy test; type: in vivo, Echinochloa crus-galli; details: 250 g ai/ha, applied to paddy water, visual rating after 13 to 14 days, scale 0 to 100 (0 no effect, 100 complete control)
# How it was run: (§2)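 Seedlings reached the 2-leaf stage, then pots were flooded to 3 cm over the soil surface. Compound was applied into the water, depth was maintained, and plants stayed in the greenhouse 13 to 14 days before visual scoring (0–100) relative to controls.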
# ducksalad = assay: Test D flooded paddy test; type: in vivo, Heteranthera limosa; details: 250 g ai/ha, applied to paddy water, visual rating after 13 to 14 days, scale 0 to 100 (0 no effect, 100 complete control)
# How it was run: as §2
# rice = assay: Test D flooded paddy test; type: in vivo, Oryza sativa; details: 250 g ai/ha, applied to paddy water, visual rating after 13 to 14 days, scale 0 to 100 (0 no effect, 100 complete control)
# How it was run: as §2
# sedge, umbrella = assay: Test D flooded paddy test; type: in vivo, Cyperus difformis; details: 250 g ai/ha, applied to paddy water, visual rating after 13 to 14 days, scale 0 to 100 (0 no effect, 100 complete control)
# How it was run: as §2
# [24] = 500 g ai/ha, preemergence, 0 to 100 scale (0 no effect, 100 complete control)
# [25] = Preemergence, 125 g ai/ha, 0 to 100 scale, 0 no effect, 100 complete control
compound,measurement,setting,value
Cc1ccc(-n2cncn2)cc1C(=O)N1CC(C(F)(F)F)Oc2c(Cl)cccc21 (stereo not shown) [Compound 346],Barnyardgrass plant response rating,barnyardgrass [1]; [24],100
same,"Plant response rating, Barnyardgrass",barnyardgrass [1]; [25],70
same,Blackgrass plant response rating,blackgrass [2]; [24],90
same,"Plant response rating, Blackgrass",blackgrass [2]; [25],80
same,Corn plant response rating,corn [3]; [24],90
same,"Plant response rating, Corn",corn [3]; [25],0
same,"Foxtail, Giant plant response rating","foxtail, giant [4]; [24]",100
same,"Plant response rating, Foxtail, Giant","foxtail, giant [4]; [25]",100
same,Kochia plant response rating,kochia [5]; [24],80
same,"Plant response rating, Kochia",kochia [5]; [25],10
same,"Oat, Wild plant response rating","oat, wild [6]; [24]",40
same,"Plant response rating, Oat, Wild","oat, wild [6]; [25]",0
same,"Pigweed, Palmer plant response rating","pigweed, palmer [7]; [24]",100
same,"Plant response rating, Pigweed, Palmer","pigweed, palmer [7]; [25]",100
same,Ragweed plant response rating,ragweed [8]; [24],10
same,"Plant response rating, Ragweed",ragweed [8]; [25],0
same,"Ryegrass, Italian plant response rating","ryegrass, Italian [9]; [24]",90
same,"Plant response rating, Ryegrass, Italian","ryegrass, Italian [9]; [25]",80
same,Soybean plant response rating,soybean [10]; [24],100
same,"Plant response rating, Soybean",soybean [10]; [25],30
same,Wheat plant response rating,wheat [11]; [24],80
same,"Plant response rating, Wheat",wheat [11]; [25],0
same,"Plant response rating, Barnyardgrass","barnyardgrass [12]; 500 g ai/ha, postemergence",70
same,"Plant response rating, Barnyardgrass","barnyardgrass [12]; Postemergence, 125 g ai/ha",40
same,"Plant response rating, Blackgrass","blackgrass [13]; 500 g ai/ha, postemergence",90
same,"Plant response rating, Blackgrass","blackgrass [13]; Postemergence, 125 g ai/ha",80
same,"Plant response rating, Corn","corn [14]; 500 g ai/ha, postemergence",90
same,"Plant response rating, Corn","corn [14]; Postemergence, 125 g ai/ha",10
same,"Plant response rating, Foxtail, Giant","foxtail, giant [15]; 500 g ai/ha, postemergence",90
same,"Plant response rating, Foxtail, Giant","foxtail, giant [15]; Postemergence, 125 g ai/ha",90
same,"Plant response rating, Kochia","kochia [16]; 500 g ai/ha, postemergence",80
same,"Plant response rating, Kochia","kochia [16]; Postemergence, 125 g ai/ha",70
same,"Plant response rating, Oat, Wild","oat, wild [17]; 500 g ai/ha, postemergence",60
same,"Plant response rating, Oat, Wild","oat, wild [17]; Postemergence, 125 g ai/ha",0
same,"Plant response rating, Pigweed, Palmer","pigweed, palmer [18]; 500 g ai/ha, postemergence",70
same,"Plant response rating, Pigweed, Palmer","pigweed, palmer [18]; Postemergence, 125 g ai/ha",40
same,"Plant response rating, Ragweed","ragweed [19]; 500 g ai/ha, postemergence",40
same,"Plant response rating, Ragweed","ragweed [19]; Postemergence, 125 g ai/ha",30
same,"Plant response rating, Ryegrass, Italian","ryegrass, Italian [20]; 500 g ai/ha, postemergence",80
same,"Plant response rating, Ryegrass, Italian","ryegrass, Italian [20]; Postemergence, 125 g ai/ha",70
same,"Plant response rating, Soybean","soybean [21]; 500 g ai/ha, postemergence",100
same,"Plant response rating, Soybean","soybean [21]; Postemergence, 125 g ai/ha",90
same,"Plant response rating, Wheat","wheat [22]; 500 g ai/ha, postemergence",70
same,"Plant response rating, Wheat","wheat [22]; Postemergence, 125 g ai/ha",20
same,"Plant response rating, Galium","galium; 500 g ai/ha, postemergence",100
same,"Plant response rating, Galium","galium; Postemergence, 125 g ai/ha",100
same,"Plant response rating, Horseweed","horseweed; 500 g ai/ha, postemergence",0
same,"Plant response rating, Horseweed","horseweed; Postemergence, 125 g ai/ha",0
same,"Plant response rating, Barnyardgrass (Flood)",barnyardgrass [23],0
same,"Plant response rating, Ducksalad (Flood)",ducksalad,65
same,"Plant response rating, Rice (Flood)",rice,0
same,"Plant response rating, Sedge, Umbrella (Flood)","sedge, umbrella",85
